Source: ChEMBL document CHEMBL3244122, “Symbiotic approach to drug design: antihypertensive beta-adrenergic blocking agents” (J Med Chem, 1979)

Columns and labels:
Rattus norvegicus [1] = assay: Antihypertensive activity in spontaneously hypertensive Wistar-Okamoto rat assessed as maximal fall in mean arterial pressure at 5 mg/kg, po; type: functional, Artery
Rattus norvegicus [2] = assay: Antihypertensive activity in spontaneously hypertensive Wistar-Okamoto rat assessed as maximal fall in mean arterial pressure at 20 mg/kg, po; type: functional, Artery
Rattus norvegicus [3] = assay: Antihypertensive activity in spontaneously hypertensive Wistar-Okamoto rat assessed as duration of action at 5 mg/kg, po; type: functional
Rattus norvegicus [4] = assay: Antihypertensive activity in spontaneously hypertensive Wistar-Okamoto rat assessed as duration of action at 20 mg/kg, po; type: functional
Canis familiaris [5] = assay: Vasodilatory activity in anesthetized dog assessed as increase in iliac blood flow […] ia; type: functional, Canis lupus familiaris, Artery
Canis familiaris [6] = assay: In vivo beta-adrenergic receptor blockade in iv dosed anesthetized dog assessed as inhibition of isoproterenol-induced tachycardia; type: functional; settings: Canis lupus familiaris
Canis familiaris [7] = assay: Vasodilatory activity in anesthetized dog assessed as increase in iliac blood flow […] measured after 800 ug/kg, iv beta-adrenergic receptor blocker timolol administration; type: functional, Canis lupus familiaris, Artery
Canis familiaris [8] = assay: In vivo beta-adrenergic receptor blockade in iv dosed anesthetized dog assessed as inhibition of isoproterenol-induced hypotension; type: functional; settings: Canis lupus familiaris
Rattus norvegicus [9] = assay: Antihypertensive activity in spontaneously hypertensive Wistar-Okamoto rat assessed as maximal fall in mean arterial pressure at 20 mg/kg, ip; type: functional, Artery; settings: route intraperitoneal
Rattus norvegicus [10] = assay: Antihypertensive activity in spontaneously hypertensive Wistar-Okamoto rat assessed as maximal fall in mean arterial pressure at 2 mg/kg, po; type: functional, Artery
Rattus norvegicus [11] = assay: Antihypertensive activity in spontaneously hypertensive Wistar-Okamoto rat assessed as duration of action at 2 mg/kg, po; type: functional
Rattus norvegicus [12] = assay: Antihypertensive activity in spontaneously hypertensive Wistar-Okamoto rat assessed as duration of action at 1 mg/kg, po; type: functional
Rattus norvegicus [13] = assay: Antihypertensive activity in spontaneously hypertensive Wistar-Okamoto rat assessed as maximal fall in mean arterial pressure at 1 mg/kg, po; type: functional, Artery
Rattus norvegicus [14] = assay: Antihypertensive activity in spontaneously hypertensive Wistar-Okamoto rat assessed as maximal fall in mean arterial pressure at 1.25 mg/kg, po; type: functional, Artery
Rattus norvegicus [15] = assay: Antihypertensive activity in spontaneously hypertensive Wistar-Okamoto rat assessed as duration of action at 1.25 mg/kg, po; type: functional
Canis familiaris [16] = assay: Vasodilatory activity in anesthetized dog assessed as increase in iliac blood flow at 800 mg, ia; type: functional, Canis lupus familiaris, Artery
Canis familiaris [17] = assay: Vasodilatory activity in anesthetized dog assessed as increase in iliac blood flow at 800 mg, ia measured after 320 ug/kg, iv beta-adrenergic receptor blocker timolol administration; type: functional, Canis lupus familiaris, Artery
Canis familiaris [18] = assay: Vasodilatory activity in anesthetized dog assessed as increase in iliac blood flow at 800 mg, ia measured after 800 ug/kg, iv beta-adrenergic receptor blocker timolol administration; type: functional, Canis lupus familiaris, Artery
Rattus norvegicus [19] = assay: Antihypertensive activity in spontaneously hypertensive Wistar-Okamoto rat assessed as duration of action at 8 mg/kg, po; type: functional
Rattus norvegicus [20] = assay: Antihypertensive activity in spontaneously hypertensive Wistar-Okamoto rat assessed as maximal fall in mean arterial pressure at 8 mg/kg, po; type: functional, Artery
Canis familiaris [21] = assay: Vasodilatory activity in anesthetized dog assessed as increase in iliac blood flow at 64 mg, ia measured after 2000 ug/kg, iv beta-adrenergic receptor blocker timolol administration; type: functional, Canis lupus familiaris, Artery
Canis familiaris [22] = assay: Vasodilatory activity in anesthetized dog assessed as increase in iliac blood flow at 250 mg, ia measured after 2000 ug/kg, iv beta-adrenergic receptor blocker timolol administration; type: functional, Canis lupus familiaris, Artery
Canis familiaris [23] = assay: Vasodilatory activity in anesthetized dog assessed as increase in iliac blood flow […] measured after 2000 ug/kg, iv beta-adrenergic receptor blocker timolol administration; type: functional, Canis lupus familiaris, Artery
Canis familiaris [24] = assay: Vasodilatory activity in anesthetized dog assessed as increase in iliac blood flow at 64 mg, ia measured after 800 ug/kg, iv beta-adrenergic receptor blocker timolol administration; type: functional, Canis lupus familiaris, Artery
Canis familiaris [25] = assay: Vasodilatory activity in anesthetized dog assessed as increase in iliac blood flow at 250 mg, ia measured after 800 ug/kg, iv beta-adrenergic receptor blocker timolol administration; type: functional, Canis lupus familiaris, Artery
Rattus norvegicus [26] = assay: Antihypertensive activity in spontaneously hypertensive Wistar-Okamoto rat assessed as maximal fall in mean arterial pressure at 0.312 mg/kg, po; type: functional, Artery
Rattus norvegicus [27] = assay: Antihypertensive activity in spontaneously hypertensive Wistar-Okamoto rat assessed as maximal fall in mean arterial pressure at 0.078 mg/kg, po; type: functional, Artery
Rattus norvegicus [28] = assay: Antihypertensive activity in spontaneously hypertensive Wistar-Okamoto rat assessed as duration of action at 0.312 mg/kg, po; type: functional
Canis familiaris [29] = assay: Vasodilatory activity in anesthetized dog assessed as increase in iliac blood flow […] measured after 320 ug/kg, iv beta-adrenergic receptor blocker timolol administration; type: functional, Canis lupus familiaris, Artery
Rattus norvegicus [30] = assay: Antihypertensive activity in spontaneously hypertensive Wistar-Okamoto rat assessed as maximal fall in mean arterial pressure at 0.625 mg/kg, po; type: functional, Artery

SMILES	Activity (Rattus norvegicus [1])	Activity (Rattus norvegicus [2])	Time (Rattus norvegicus [3])	Time (Rattus norvegicus [4])	Activity (Canis familiaris [5])	ED50 (Canis familiaris [6])	ED50 (Canis familiaris [8])	Activity (Rattus norvegicus [14])	also measured
Cc1cc(OCC(O)CNC(C)(C)C)cc(C)c1-c1ncc(C(F)(F)F)[nH]1 (centres undefined)	19 mmHg	30 mmHg	4 h	18 h	7 mL/min				
CC(C)(C)NCC(O)COc1ccc(-c2ncc(C(F)(F)F)[nH]2)cn1 (centres undefined)				>7 h	103 mL/min	0.0025 mg/kg	0.058 mg/kg		Activity (Canis familiaris [7]): 38 mL/min; Activity (Rattus norvegicus [9]): 40 mmHg
NNc1nncc2ccccc12 [HYDRALAZINE]					66 mL/min				Activity (Rattus norvegicus [10]): 40 mmHg; Time (Rattus norvegicus [11]): >7 h; Time (Rattus norvegicus [12]): 6 h; Activity (Rattus norvegicus [13]): 30 mmHg
CC(C)(C)NC[C@H](O)COc1ccc(-c2ncc[nH]2)cc1						0.067 mg/kg	> 1 mg/kg		
CC(C)NCC(O)COc1cccc2ccccc12 (centres undefined) [PROPRANOLOL]	7 mmHg	14 mmHg	<8 h	12 h		0.051 mg/kg	0.019 mg/kg	12 mmHg	Time (Rattus norvegicus [15]): 8 h
FC(F)(F)c1cnc(-c2cccnc2)[nH]1									Activity (Canis familiaris [16]): 93 mL/min; Activity (Rattus norvegicus [10]): 39 mmHg; Time (Rattus norvegicus [11]): 6 h; Activity (Canis familiaris [17]): 99 mL/min; Activity (Canis familiaris [18]): 76 mL/min; Time (Rattus norvegicus [19]): >6 h; Time (Rattus norvegicus [12]): 2 h; Activity (Rattus norvegicus [13]): 21 mmHg; Activity (Rattus norvegicus [20]): 48 mmHg
CC(C)(C)NCC(O)COc1cc(C#N)ccn1 (centres undefined)	30 mmHg	55 mmHg	2 h	4 h	35 mL/min	0.03 mg/kg	> 0.03 mg/kg	15 mmHg	Activity (Canis familiaris [7]): 18 mL/min
CC(C)(C)NC[C@@H](O)COc1ncccc1C#N.Cl	27 mmHg	40 mmHg	1 h	4 h		0.1 mg/kg	0.1 mg/kg	22 mmHg	Activity (Canis familiaris [21]): 13 mL/min; Activity (Canis familiaris [22]): 22 mL/min; Activity (Canis familiaris [23]): 82 mL/min
CC(C)(C)NC[C@H](O)COc1ncccc1C#N.Cl					98 mL/min	0.0015 mg/kg	0.0052 mg/kg	47 mmHg	Activity (Canis familiaris [24]): 38 mL/min; Activity (Canis familiaris [25]): 62 mL/min; Activity (Rattus norvegicus [26]): 30 mmHg; Time (Rattus norvegicus [15]): >12 h; Activity (Rattus norvegicus [27]): 19 mmHg; Activity (Canis familiaris [23]): 90 mL/min; Time (Rattus norvegicus [28]): 1 h
Cc1c[nH]c(-c2ccc(OCC(O)CNC(C)(C)C)cc2)n1 (centres undefined)	19 mmHg	41 mmHg	<8 h	8 h	60 mL/min			24 mmHg	Time (Rattus norvegicus [15]): <6 h; Activity (Canis familiaris [29]): 33 mL/min
CC(C)(C)NCC(O)COc1ccccn1 (centres undefined)	10 mmHg	33 mmHg				0.01 mg/kg	0.07 mg/kg		Activity (Canis familiaris [23]): 30 mL/min
CC(C)(C)NC[C@H](O)COc1nsnc1N1CCOCC1 [TIMOLOL]						0.0024 mg/kg	0.0013 mg/kg	-1 mmHg	Activity (Rattus norvegicus [26]): 32 mmHg; Activity (Rattus norvegicus [30]): 0 mmHg; Time (Rattus norvegicus [28]): 8 h
